Publication PMC4176481, “Influence of D-glutamine and D-glutamic acid sequences in optical peptide probes targeted against the cholecystokinin-2/gastrin-receptor on binding affinity, specificity and pharmacokinetic properties” (EJNMMI Research, 2013)
Values joined by “and” are separate entries in the source; they are usually repeats but may differ in a detail not shown here. Equal entries are not always repeated. “Also recorded” adds a separate entry of the source. Starred links: 1 amine or outer side, 2 acyl side, 3 side chain; linkers in the order of their positions; H or OH if unused. Positions of bridges follow the written chain, without caps; N, C: chain ends. Non-standard residues stand in square brackets, D forms with d. Residues, ends and D or L forms follow the SMILES beside them. Chains are numbered I, II in the order given. *: point of attachment. X1 = CC(C)(C)c1cc(C=CC=CC=C2N(CCCS(=O)(=O)O)c3ccc(S(=O)(=O)O)cc3C2(C)CCCC(=O)*)c2cc3c(cc2[o+]1)N(CCCS(=O)(=O)O)C(C)(C)C=C3CS(=O)(=O)[O-]; Nle = CCCC[C@H](N)C(=O)O; X2 = O=C(C[*:1])[*:2]

B1: QE minigastrin probe (peptide)
chain: {DY‑754}-AYGWMDF-NH2
modifications: also: N-terminal spacer of three alternating D-Gln and three D-Glu, order not given here, M5: Met or Nle

Assays:
[1] = Metabolic (protease) stability in mouse liver homogenates; type: in vitro ADME; settings: mouse liver homogenate, incubation up to 180 min, HPLC with UV/VIS detection at 750 nm, three parallels
Experimental: Supplementary file 2191-219X-3-75-S3.pptx: Additional file 3: Metabolic (protease) stability of QE and bivQ against the degradation by mouse liver homogenates. The HPLC peak of non-degraded QE at 9.7 min elution time (a-I) decreased after 180 min of probe incubation in liver homogenate, whereas a second peak, representing degradation products, appeared at 7.2 min of elution (a-II). Degradation curves of (b) QE and (c) bivQ. […] Peaks were detected at 750 nm with a UV/VIS detector. Data represent three parallels. Click here for file
Supplementary file 2191-219X-3-75-S4.pptx: Additional file 4: Metabolic stability of the optical CCK2R targeted minigastrin dQ-MG-754 [[20]]. Degradation of dQ-MG-754 for comparison with QE and bivQ. […] Probe signal was detected at 750 nm with a UV/VIS detector. Data represent three parallels. Click here for file

A431/WT cells = experiment: Target binding in vitro, fluorescence microscopy, CCK2R-non-expressing cells; type: cell-based, human; settings: 0.5 μM, 30 min
Experimental: (§1) Binding of the optical probes QE and bivQ to CCK2R-expressing (A431/CCK2R) and CCK2R-non-expressing (A431/WT) cells was investigated after incubation with 0.5 μM of each probe in culture medium for 30 min at 4°C to observe active surface receptor binding and at 37°C to check for internalization behaviour, which is mandatory for in vivo signal amplification. Incubation with 0.5 μM of the fluorochrome DY-754 should determine the role of the interaction of the peptide with the CCK2R for probe uptake. Probe incubation was followed by cell membrane staining with wheat germ agglutinin-Alexa Fluor®-555 (WGA-555, Invitrogen, Carlsbad, CA, USA), fixation in 4% (v/v) paraformaldehyde on ice and mounting in PermaFluor® Mounting medium (Thermo Fisher, Waltham, MA, USA), containing 0.2 μg/mL Hoechst 33258 (Applichem, Darmstadt, Germany) to stain cell nuclei. Fluorescence microscopy was carried out with the digital microscope EVOSfl (AMG, Bothell, WA, USA) equipped with three filter cubes for visualization of Hoechst (excitation 335 to 379 nm, emission 417 to 477 nm), WGA-555 (excitation 511 to 551 nm, emission 573 to 613 nm) and DY-754 (excitation 690 to 730 nm, emission 752 to 798 nm).

A431/WT tumours = experiment: In vivo NIRF imaging of CCK2R-negative xenografts; set-up: species or system athymic nude mice; settings: 1 to 8 h p.i.; i.v. 108 nmol/kg QE or 54 nmol/kg bivQ; n = 5
From the text: Female athymic nude mice (Hsd:Athymic Nude-Foxn1^nu nu/nu; Harlan Laboratories, Eystrup, Germany) were housed under standard conditions with water and food ad libitum. Mice were maintained under a low-pheophorbide diet (C 1039; Altromin, Lage, Germany) to reduce tissue autofluorescence. All procedures were approved by the regional animal committee (reg. number 02-007/10) and were in accordance with international guidelines on the ethical use of animals. Animals were anesthetized with 2% isoflurane during all procedures. […]
Xenografts were inoculated in athymic nude mice (Hsd:Athymic Nude-Foxn1^nu nu/nu; Harlan Laboratories) 10 to 15 days before imaging by subcutaneous injection of 0.5 million A431/CCK2R (left flank) and A431/WT cells (right flank) dispersed in Matrigel™ (BD Biosciences). For in vivo fluorescence imaging, 108 nmol/kg QE or 54 nmol/kg bivQ probe was injected intravenously (i.v.), according to the results of a dose determination experiment, which was set up to identify the optimal relation between sensitivity and contrast (Additional file 1). […] Another group received 108 nmol/kg of the unconjugated fluorophore DY-754 to determine dye-mediated non-specific tumour uptake, and one group remained untreated to control for probe-unrelated NIR fluorescence in the animals. […]

[2] = test system: A431/CCK2R and A431/WT tumours; experiment: Ex vivo intratumoural probe distribution in cryosections (Odyssey scanner); set-up: species or system athymic nude mice; settings: acetone-fixed 30-μm cryosections of explanted xenografts, three specimens/group
From the text: To determine intratumoural distribution of the peptide probes ex vivo, acetone-fixed 30-μm cryosections of explanted xenografts were scanned mesoscopically in the near-infrared scanner Odyssey® (LI-COR, Bad Homburg, Germany) at 700 nm (autofluorescence) and 800 nm (probe fluorescence).

[3] = Biodistribution, ex vivo NIRF of organs and xenografts 8 h p.i.; type: in vivo, athymic nude mice; settings: for uptake into A431/WT tumours (biodistribution): n = 5, comparably high for DY-754 (p > 0.05)
Experimental: We investigated the biodistribution of the optical probes and of the fluorochrome DY-754 to determine the influence of the dye on tumour and organ accumulation. Therefore, 8 h p.i., ex vivo NIRF fluorescence images of the organs and the two xenografts (A431/CCK2R and A431/WT) per mouse were taken in combination with the placement of ROIs on these organs to assess semiquantitative fluorescence intensities.

A431/CCK2R tumours = experiment: In vivo NIRF imaging of CCK2R-expressing xenografts; set-up: species or system athymic nude mice; settings: for TBR, A431/CCK2R xenografts, under competition / tumour/background ratio (TBR), A431/CCK2R xenografts: 8 h p.i., mean ± SD, n = 5; for TBR, A431/CCK2R xenografts, under competition: co-injection of 10-fold molar excess of non-fluorescent minigastrin; for tumour/background ratio (TBR), A431/CCK2R xenografts: i.v. 108 nmol/kg QE or 54 nmol/kg bivQ; for TBR, CCK2R-expressing xenografts (summary bound): high-contrast imaging, discussion summary
From the text: Female athymic nude mice (Hsd:Athymic Nude-Foxn1^nu nu/nu; Harlan Laboratories, Eystrup, Germany) were housed under standard conditions with water and food ad libitum. Mice were maintained under a low-pheophorbide diet (C 1039; Altromin, Lage, Germany) to reduce tissue autofluorescence. All procedures were approved by the regional animal committee (reg. number 02-007/10) and were in accordance with international guidelines on the ethical use of animals. Animals were anesthetized with 2% isoflurane during all procedures. To implement subcutaneous xenografts, 5 × 10^5 CCK2R transfected (A431/CCK2R) and non-transfected wild-type cells (A431/WT) were dispensed in Matrigel™ (BD Biosciences, Heidelberg, Germany) and injected into the right (A431/CCK2R cells) and left (A431/WT cells) flank of 8- to 12-week-old animals 10 to 15 days before in vivo imaging.
Xenografts were inoculated in athymic nude mice (Hsd:Athymic Nude-Foxn1^nu nu/nu; Harlan Laboratories) 10 to 15 days before imaging by subcutaneous injection of 0.5 million A431/CCK2R […] and A431/WT cells (right flank) dispersed in Matrigel™ (BD Biosciences). For in vivo fluorescence imaging, 108 nmol/kg QE or 54 nmol/kg bivQ probe was injected intravenously (i.v.), according to the results of a dose determination experiment, which was set up to identify the optimal relation between sensitivity and contrast (Additional file 1). […] Another group received 108 nmol/kg of the unconjugated fluorophore DY-754 to determine dye-mediated non-specific tumour uptake, and one group remained untreated to control for probe-unrelated NIR fluorescence in the animals. At defined time points between 0 and 8 h p.i., NIRF fluorescence images (excitation 615 to 665 nm, emission >750 nm) and white light images of the animals were obtained. By means of spectral unmixing, tissue autofluorescence was removed from the images. Subsequently, fluorescence intensities (FI) were analysed over the time in regions of interest (ROIs) that were placed upon the tumours and non-tumour tissue. As a measure of contrast between tumour and non-tumour fluorescence, tumour/background ratios (TBRs) were calculated as a quotient of FItumour/FInon-tumour.

A431/CCK2R cells = experiment: Target binding and internalization in vitro, fluorescence microscopy; type: cell-based, human; settings: 0.5 μM, 30 min; for binding and internalization in A431/CCK2R cells at 37°C: n = 3
Experimental: as §1

CCK2R (A431/CCK2R cells) = biological target: T1, CCK2R (A431/CCK2R cells) (Homo sapiens, UniProt P32239); set-up: method as in PMID 23591397; settings: earlier probe with a spacer of six uncharged D-glutamines; read-out: dissociation constant Kd; cited from earlier work
T1 construct: expressed in transfected cells; host or cells: A431 human epidermoid carcinoma cells, stably transfected (gift from Dr. Luigi Aloj)
T1 sequence (P32239 1-447): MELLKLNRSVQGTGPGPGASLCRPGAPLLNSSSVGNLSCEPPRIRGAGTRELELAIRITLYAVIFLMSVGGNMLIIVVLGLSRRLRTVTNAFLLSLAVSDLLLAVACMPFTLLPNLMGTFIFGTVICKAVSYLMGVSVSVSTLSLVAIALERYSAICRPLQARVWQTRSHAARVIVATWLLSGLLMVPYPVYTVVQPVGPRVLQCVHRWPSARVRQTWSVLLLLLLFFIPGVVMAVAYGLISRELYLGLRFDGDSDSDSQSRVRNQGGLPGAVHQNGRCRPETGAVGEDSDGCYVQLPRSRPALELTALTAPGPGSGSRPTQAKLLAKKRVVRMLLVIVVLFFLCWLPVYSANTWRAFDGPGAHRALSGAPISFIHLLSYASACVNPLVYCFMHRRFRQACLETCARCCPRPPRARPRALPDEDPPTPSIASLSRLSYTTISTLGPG

[4] = biological target: T2, cholecystokinin-2/gastrin receptor (CCK2R) (Homo sapiens, UniProt P32239); experiment: saturation binding on A431/CCK2R cells, NIR fluorescence
T2 chain: T1 sequence (P32239 1-447)

[5] = biological target: T2, cholecystokinin-2/gastrin receptor …; experiment: competition with QE probe on cells, NIR fluorescence
[6] = biological target: T2, cholecystokinin-2/gastrin receptor …; experiment: competition with bivQ probe on cells, NIR fluorescence

Molecule | metabolic stability against degradation by liver proteases [1] | binding to A431/WT cells (no CCK2R expression) (A431/WT cells) | TBR, A431/WT tumours (A431/WT tumours) | intratumoural fluorescence at 800 nm in tumour sections [2] | fluorescence accumulation in stomach, small intestine and colon ([3]; n = 5) | uptake into A431/WT tumours (biodistribution) [3] | TBR, A431/CCK2R xenografts, under competition (A431/CCK2R tumours) | tumour/background ratio (TBR), A431/CCK2R xenografts (A431/CCK2R tumours) | TBR, CCK2R-expressing xenografts (summary bound) (A431/CCK2R tumours) | probe localisation in A431/CCK2R cells at 4°C (A431/CCK2R cells) | binding and internalization in A431/CCK2R cells at 37°C (A431/CCK2R cells) | other results
CSCC[C@H](NC(=O)[C@H](Cc1c[nH]c2ccccc12)NC(=O)CNC(=O)[C@H](Cc1ccc(O)cc1)NC(=O)[C@H](C)NC(=O)[C@@H](CCC(=O)O)NC(=O)[C@@H](CCC(N)=O)NC(=O)[C@@H](CCC(=O)O)NC(=O)[C@@H](CCC(N)=O)NC(=O)[C@@H](CCC(=O)O)NC(=O)[C@@H](CCC(N)=O)NC(=O)CCCC1(C)C(=CC=CC=Cc2cc(C(C)(C)C)[o+]c3cc4c(cc23)C(CS(=O)(=O)[O-])=CC(C)(C)N4CCCS(=O)(=O)O)N(CCCS(=O)(=O)O)c2ccc(S(=O)(=O)O)cc21)C(=O)N[C@@H](CC(=O)O)C(=O)N[C@@H](Cc1ccccc1)C(N)=O (stereo partly drawn) [QE] (X1-[dQ][dE][dQ][dE][dQ][dE]AYGWMDF-NH2) | more stable than bivQ; also recorded: highly stable | no binding | ~2 and < 2 | only in the outer A431/CCK2R tumour regions | no fluorescence accumulation | weak uptake | 4.4 ± 0.9 | 6.2 ± 1.0 | > 6 | restricted to the cell membrane | binding and internalization | uptake in the liver compared to free DY-754 ([3]; n = 5): weakly elevated uptake
CCCC[C@H](NC(=O)[C@H](Cc1c[nH]c2ccccc12)NC(=O)CNC(=O)[C@H](Cc1ccc(O)cc1)NC(=O)[C@H](C)NC(=O)[C@@H](CCC(N)=O)NC(=O)[C@@H](CCC(N)=O)NC(=O)[C@@H](CCC(N)=O)NC(=O)CSC[C@H](NC(=O)CCCC1(C)C(=CC=CC=Cc2cc(C(C)(C)C)[o+]c3cc4c(cc23)C(CS(=O)(=O)[O-])=CC(C)(C)N4CCCS(=O)(=O)O)N(CCCS(=O)(=O)O)c2ccc(S(=O)(=O)O)cc21)C(=O)N[C@H](CCC(N)=O)C(=O)N[C@H](CCC(N)=O)C(=O)N[C@H](CCC(N)=O)C(=O)N[C@@H](C)C(=O)N[C@@H](Cc1ccc(O)cc1)C(=O)NCC(=O)N[C@@H](Cc1c[nH]c2ccccc12)C(=O)N[C@@H](CCCC)C(=O)N[C@@H](CC(=O)O)C(=O)N[C@@H](Cc1ccccc1)C(N)=O)C(=O)N[C@@H](CC(=O)O)C(=O)N[C@@H](Cc1ccccc1)C(N)=O (stereo partly drawn) [bivQ] (I: X1-C[dQ][dQ][dQ]AYGW[Nle]DF-NH2 / II: [dQ][dQ][dQ]AYGW[Nle]DF-NH2; linker I:1-II:N via X2) | only a limited metabolic stability | no binding | < 2 | only in the outer A431/CCK2R tumour regions | no fluorescence accumulation | weak uptake | 4.0 ± 1.2 | 6.3 ± 1.4 | > 6 | restricted to the cell membrane | binding and internalization | –
dQ-MG-754: previously published optical minigastrin probe with a spacer of six uncharged D-glutamines and DY-754 (ref 20) (QQQQQQAYGWMDF; not fully specified; Synthetic minigastrin analogue; Residues 1-6 are D-Gln (the text states a spacer of six D-glutamines)) | – | – | – | – | – | – | – | – | – | – | – | Kd (CCK2R (A431/CCK2R cells)): 1.8 ± 0.6 nM
B1 | – | – | – | – | – | – | – | – | – | – | – | Kd [4]: 5.8 nM
LEEEEEAYGWMDF [HG-13 minigastrin] | – | – | – | – | – | – | – | – | – | – | – | IC50 [5]: 16.7 nM; IC50 [6]: 16.6 nM
